Reference: patent US10859587B2, “Application of artificially expressed HSP27 protein in detecting a residue of a β2-adrenergic receptor agonist-based drug” (HENAN ACADEMY OF AGRICULTURAL SCIENCE, priority 2016, dated 2020)

Assays:
[1] = system: artificially expressed HSP27 protein; test: ELISA binding experiment between HSP27 protein and biotin-conjugated small molecules; conditions: 100 ng/mL biotin-conjugated small molecule; HSP27 coated in gradient from 100 μg/mL
Description: 1. The bacteria solution of BL21 (DE3) host bacteria of artificially expressed HSP27 was subjected to ultrasonication, and then coated in gradient on a ELISA plate with an initial concentration of 100 μg/mL (based on the protein) in an amount of 50 μL/well;
2. 100 ng/mL of small molecules conjugated biotin was added into the resultant ELISA plate in an amount of 50 μL/well, mixed well on a shaker, and incubated at 37° C. for 30 min in the dark; the ELISA plate was washed with an ELISA plate washing machine for 4 times, or the liquid in the wells of the ELISA plate was manually removed by shaking out, each well was filled with diluted buffer solution, and then shaken out the liquid to dry again, and washing as repeated in this way for 4 times;
3. HRP-labeled streptavidin conjugate was added into the ELISA plate, and the reaction was carried out at 37° C. for 30 min; washing was performed in the same way as the above step for 4 times.
4. TMB solution was added into corresponding microwells according to the required amount of 100 μL per well, and the plate was shaken on the ELISA plate shaker for 30 s, and subjected to color development at room temperature for 10 min;
5. 50 μL of 2 mol/L sulfuric acid was added to each well to terminate the reaction, and the plate was shaken on the ELISA plate shaker for 30 s, and then the absorbance at 450 nm of each well was read with a microplate reader, and the results were judged (see FIG. 2 for the results).

[2] = system: HSP27 polyclonal antiserum; test: ELISA identification of artificially expressed HSP27 protein with HSP27 polyclonal antiserum; format: binding; conditions: HSP27 1 μg/mL
Description: The artificially expressed HSP27 protein at an optimal concentration was selected as a coating antigen, and coated on the ELISA plate in an amount of 50 μL/well. The plate was placed in a 37° C. constant temperature incubator for reaction for 2 h, washed with PBST for 4 times, and air-dried at room temperature. BSA with a mass fraction of 1% was added as a blocking solution in amount of 200 μL/well, and reaction was carried out at a constant temperature of 37° C. for 1 h. The resultant plate was washed with PBST for 4 times, and air-dried at room temperature. Then, HSP27 polyclonal antiserum with gradient concentrations was added at 50 μL/well, a negative control (NC) was set, and the plate was held at 37° C. for 30 min, and washed for 4 times. 50 μL of goat anti-mouse secondary antibody (1:1000) was added to each well, and the plate was held at 37° C. for 30 min, and then washed for 4 times. The color development reaction was carried out with TMB color developing solution in an amount of 100 μL/well, and 10 minutes later, the reaction was terminated with 50 μL of 2 mol/L H2SO4. The absorbance of each well was read at 450 nm with a microplate reader.

Molecule: CC(C)(C)NCC(O)c1cc(Cl)c(N)c(Cl)c1 (stereo not shown) [Clenbuterol]
- binding to HSP27 (ELISA, absorbance at 450 nm, FIG. 2) [1]: can bind to HSP27

Molecule: CC(Cc1ccc(O)cc1)NCC(O)c1cc(O)cc(O)c1 (stereo not shown) [Fenoterol]
- binding to HSP27 (ELISA, absorbance at 450 nm, FIG. 2) [1]: can bind to HSP27

Molecule: CC(CCc1ccc(O)cc1)NCC(O)c1ccc(O)cc1 (racemic) [Ractopamine]
- binding to HSP27 (ELISA, absorbance at 450 nm, FIG. 2) [1]: can bind to HSP27

Molecule: artificially expressed HSP27 protein: HSP27 CDS cloned in pLSLa vector, expressed in BL21 (DE3) with IPTG, purified by agarose resin column
- absorbance at 450 nm ([2]; serum dilution ratio 5000): 4.00
- absorbance at 450 nm ([2]; serum dilution ratio 10000): 3.92
- absorbance at 450 nm ([2]; serum dilution ratio 20000): 4.00
- absorbance at 450 nm ([2]; serum dilution ratio 40000): 3.77
- absorbance at 450 nm ([2]; serum dilution ratio 80000): 3.50
- absorbance at 450 nm ([2]; serum dilution ratio 160000): 2.60
- absorbance at 450 nm ([2]; serum dilution ratio 320000): 1.63
- absorbance at 450 nm ([2]; serum dilution ratio 640000): 0.97
- absorbance at 450 nm ([2]; serum dilution ratio 1280000): 0.67
- absorbance at 450 nm ([2]; serum dilution ratio 2560000): 0.51
